Test results published in patent US20260285849A1, “METHYLOPHIOPOGONONE A DERIVATIVE, AND PREPARATION AND USE THEREOF” (INSTITUTE OF MATERIA MEDICA, CHINESE ACADEMY OF MEDICAL …, priority 2022, published 2026).
Read-outs that look alike come from different tables or passages of the source. Marks after values point to notes of the source that are not given here.

Assays:
Rat H9C2 cardiomyocytes [1] = assay: cells; conditions: H9c2, 24 h, read-out: Cell viability
Description: (§3) Rat H9C2 cardiomyocytes in the logarithmic growth phase were seeded at a density of 7×10^4 cells/mL into 96-well plates, with 100 μL per well. […] After 24 hours of culture, the drug treatment groups were respectively added with 50 μM Ang II and the corresponding concentration of the drug. The Ang II model group was added with 50 μM Ang II and an equal volume of DMSO, and the blank control group was added with an equal volume of DMSO. Then, the cells were cultured for another 24 hours. After removing the supernatant, 100 μL of MTT solution (0.5 mg/mL) was added to each well, and the plates were placed in an incubator for 4 hours. After removing the supernatant again, 150 μL of DMSO was added to each well, and the mixture was shaken and mixed evenly for 10 minutes. The absorbance was measured at 570 nm using a microplate reader to calculate the cell viability.
(§4) Cell viability (%)=[(As−Ab)/(Ac−Ab)]×100% • As: Experimental well (culture medium containing cells, MTT, Ang II); • Ac: Control well (culture medium containing cells, MTT, without Ang II); • Ab: Blank well (culture medium without cells, MTT, without Ang II).

H9C2 cardiomyocytes [2] = assay: cells; conditions: Rattus norvegicus, H9c2, read-out: Cell viability
Description: (§5) H9C2 cardiomyocytes in the logarithmic growth phase were seeded into 96-well plates at a density of 7×10^4 cells/mL, with 100 μL per well.
(§6) After 24 hours of culture, the culture medium of the H/R and drug-treated groups was replaced with serum-free glucose-free DMEM medium (100 μL per well). The cells were then placed in an anaerobic incubator and cultured under hypoxic conditions in a 37° C. cell culture incubator. After 6 hours, the supernatant of the H/R and drug-treated groups was removed and replaced with high-glucose medium containing 10% fetal bovine serum (100 μL per well). Each drug-treated group received the corresponding concentration of the drug, while the H/R model group and the blank control group received an equal volume of DMSO.
(§7) After removing the supernatant, 100 μL of CCK solution (the volume of CCK accounted for 10% of the DMEM culture medium volume) was added to each well. The cells were cultured in the cell culture incubator for 1 hour, and the absorbance was measured at 450 nm using a microplate reader to calculate the cell viability. Cell viability was calculated as follows: Cell viability (%)=(Experimental well-Blank well)/(Control well-Blank well)×100%.

[3] = tested on: mice with isoproterenol (ISO)-induced ischemic heart disease; assay: ISO-induced ischemic heart disease mouse model: serum ANP and NT-proBNP (ELISA); type: in vivo; conditions: ISO 40 mg/kg s.c. 7 times
Description: (§1) Male C57BL/6 mice were allowed to acclimate to the environment and then randomly divided into 9 groups, namely the blank control group, the ISO model group, the ISO+diltiazem 20 mg/kg positive control drug group, the ISO+Formula I (0.1, 0.5, 2 mg/kg) groups, and the ISO+Formula II (0.1, 0.5, 2 mg/kg) groups. Mice in the drug administration groups were intragastrically administered the corresponding doses of Formula I and Formula II compounds once a day at the same time. Mice in the positive drug diltiazem group were intragastrically administered the corresponding dose of diltiazem once a day. Mice in the blank control group and the model group were given the same amount of solvent (0.5% CMC-Na). The administration volume was 10 mL/kg, and the administration was continuous for 11 days.
(§2) From the 4th to the 10th day of drug administration, ISO modeling was carried out. The blank control group was subcutaneously injected with normal saline, and mice in the other groups were subcutaneously injected with ISO at a dose of 40 mg/kg (modeling was performed 2 hours after drug administration), for a total of 7 times.
Detection of Myocardial Hypertrophy/Heart Failure Biomarkers: After the drug administration ended, the animals' eyes were enucleated to collect blood. The blood was left to stand at room temperature for 2 hours, and then centrifuged at 3500 rpm for 20 minutes to separate the serum. The contents of serum ANP and NT-proBNP were determined according to the instructions of the ELISA kit.

Rat H9C2 cardiomyocytes [4] = conditions: 50 μM Ang II 24 h, MTT 570 nm
Description: as §3, §4

[5] = tested on: mice with isoproterenol (ISO)-induced ischemic heart disease; assay: ISO-induced ischemic heart disease mouse model: serum CK-MB (ELISA); type: in vivo
Description: as §1, §2
Myocardial enzyme CK-MB detection: After the administration ended, blood was collected from the animals by enucleation. The blood was left to stand at room temperature for 2 hours, and then centrifuged at 3500 rpm for 20 minutes to separate the serum. The content of CK-MB in the serum was determined according to the instructions of the ELISA kit.

Rat H9C2 cardiomyocytes [6] = assay: cells; conditions: H9c2, 24 h, read-out: Cell survival rate
H9C2 cardiomyocytes [7] = conditions: 6 h hypoxia, 12 h reoxygenation, CCK 450 nm
Description: as §5, §6, §7

[8] = tested on: mice with isoproterenol (ISO)-induced ischemic heart disease; assay: ISO-induced ischemic heart disease mouse model: myocardial tissue pathology (H&E); type: in vivo; conditions: for The number of animals with lesion degree + / The number of animals with lesion degree ++ / The number of animals with lesion degree +++ / The number of animals with lesion degree ++++ / The number of animals with lesion degree +++++ / The number of animals with lesion degree − / average score of myocardial tissue lesion degree: H&E
Description: as §1, §2
Pathological detection of myocardial tissue: After the experiment ended, the heart was washed with ice-cold physiological saline and dried with absorbent paper. It was then cut transversely into two halves. One-third of the part closer to the apex of the heart was fixed in a 4% paraformaldehyde solution. After dehydration with gradient ethanol and clearing with xylene, it was immersed in melted paraffin three times for embedding, 30 minutes each time. After embedding, continuous sections (about 4 μm thick) were made. Routine hematoxylin and eosin (H.E.) staining was performed. The pathological state of the myocardial tissue was observed under an optical microscope, photographed, and analyzed.
• −: No abnormalities were observed. • +: No myocardial tissue damage was seen. There was local hypertrophy of cardiomyocytes in the interventricular septum and papillary muscles, local edema and degeneration of cardiomyocytes, widening of the local muscle space in the lesion area, and mild non-specific inflammation in the interstitium. • ++: No obvious myocardial tissue damage (cardiomyocyte necrosis) was observed. There was local hypertrophy of cardiomyocytes in the interventricular septum and papillary muscles, local edema and degeneration of cardiomyocytes. Myofibril dissolution (disappearance of cross-striations) could be seen in local areas. The lesions were relatively limited and distributed in small foci. Non-specific inflammation was visible in the interstitium, and local fibrous tissue hyperplasia in the interstitium was noted. • +++: There was obvious hypertrophy of cardiomyocytes in the interventricular septum and papillary muscles, local edema and degeneration of cardiomyocytes. […] The lesion was limited to the subendocardium of the local interventricular septum (or papillary muscle), with a limited and small affected area. Non-specific inflammation was visible in the interstitium of the lesion area, and local fibrous tissue hyperplasia in the interstitium was noted. • ++++: The hypertrophy of cardiomyocytes in the interventricular septum and papillary muscles is remarkable. Locally, there is edema and degeneration of cardiomyocytes; there is obvious damage (necrosis of cardiomyocytes) in the myocardial tissue of the local interventricular septum and papillary muscles. The lesions are distributed in foci (or small patches), and the affected area is relatively large. […] Locally, there is edema and degeneration of cardiomyocytes; the damage (necrosis of cardiomyocytes) of the myocardial tissue of the local interventricular septum and papillary muscles is severe. The damage (necrosis) lesions are distributed in patches and are connected to each other. Transmural myocardial tissue damage of the interventricular septum and papillary muscles can be seen locally.

[9] = 0.1 mg/kg intragastric once a day 11 days
[10] = 0.5 mg/kg intragastric once a day 11 days
[11] = 2 mg/kg intragastric once a day 11 days

SMILES: O=c1c(Cc2ccc3c(c2)OCO3)coc2cc(O)cc(O)c12 [Formula I]
- viability at 0.1 µM (Rat H9C2 cardiomyocytes [1]): 75.1%
- viability at 0.3 µM (Rat H9C2 cardiomyocytes [1]): 72.5%
- viability at 1 µM (Rat H9C2 cardiomyocytes [1]): 73.5%
- viability at 3 µM (Rat H9C2 cardiomyocytes [1]): 75.9%
- viability at 10 µM (Rat H9C2 cardiomyocytes [1]): 76.4%
- viability at 0.1 µM (H9C2 cardiomyocytes [2]): 60.6%
- viability at 0.3 µM (H9C2 cardiomyocytes [2]): 60.3%
- viability at 1 µM (H9C2 cardiomyocytes [2]): 55.4%
- viability at 3 µM (H9C2 cardiomyocytes [2]): 59.6%
- viability at 5 µM (H9C2 cardiomyocytes [2]): 54.4%
- viability at 10 µM (H9C2 cardiomyocytes [2]): 55.3%
- ANP [3, 9]: 301.02 ± 58.98 pg/mL
- NT-proBNP [3, 9]: 39.35 ± 2.83 pg/mL
- ANP [3, 10]: 295.85 ± 57.72 pg/mL
- NT-proBNP [3, 10]: 43.52 ± 6.06 pg/mL
- ANP [3, 11]: 289.01 ± 50.17 pg/mL
- NT-proBNP [3, 11]: 40.47 ± 7.15 pg/mL
- OD (Rat H9C2 cardiomyocytes [4]; 0.1 μM): 0.809 ± 0.060
- OD (Rat H9C2 cardiomyocytes [4]; 0.3 μM): 0.780 ± 0.046
- OD (Rat H9C2 cardiomyocytes [4]; 1 μM): 0.791 ± 0.043
- OD (Rat H9C2 cardiomyocytes [4]; 3 μM): 0.816 ± 0.035
- OD (Rat H9C2 cardiomyocytes [4]; 10 μM): 0.823 ± 0.048
- CK-MB [5, 9]: 14.86 ± 2.90 ng/mL
- CK-MB [5, 10]: 13.71 ± 2.75 ng/mL
- CK-MB [5, 11]: 15.05 ± 2.49 ng/mL
- viability at 0.1 µM (Rat H9C2 cardiomyocytes [6]): 81.3%
- viability at 0.3 µM (Rat H9C2 cardiomyocytes [6]): 76.8%
- viability at 1 µM (Rat H9C2 cardiomyocytes [6]): 74%
- viability at 3 µM (Rat H9C2 cardiomyocytes [6]): 76.6%
- viability at 5 µM (Rat H9C2 cardiomyocytes [6]): 66.7%
- viability at 10 µM (Rat H9C2 cardiomyocytes [6]): 69.4%
- OD (H9C2 cardiomyocytes [7]; 0.1 μM): 0.630 ± 0082
- OD (H9C2 cardiomyocytes [7]; 0.3 μM): 0.628 ± 0.061
- OD (H9C2 cardiomyocytes [7]; 1 μM): 0.576 ± 0.063
- OD (H9C2 cardiomyocytes [7]; 3 μM): 0.620 ± 0.069
- OD (H9C2 cardiomyocytes [7]; 5 μM): 0.566 ± 0.074^(p = 0.07)
- OD (H9C2 cardiomyocytes [7]; 10 μM): 0.575 ± 0.091
- The number of animals with lesion degree + ([8]; 0.1 mg/kg): 0
- The number of animals with lesion degree ++ ([8]; 0.1 mg/kg): 2
- The number of animals with lesion degree +++ ([8]; 0.1 mg/kg): 5
- The number of animals with lesion degree ++++ ([8]; 0.1 mg/kg): 2
- The number of animals with lesion degree +++++ ([8]; 0.1 mg/kg): 0
- The number of animals with lesion degree − ([8]; 0.1 mg/kg): 0
- average score of myocardial tissue lesion degree ([8]; 0.1 mg/kg): 3.00 ± 0.71
- The number of animals with lesion degree + ([8]; 0.5 mg/kg): 2
- The number of animals with lesion degree ++ ([8]; 0.5 mg/kg): 4
- The number of animals with lesion degree +++ ([8]; 0.5 mg/kg): 4
- The number of animals with lesion degree ++++ ([8]; 0.5 mg/kg): 0
- The number of animals with lesion degree +++++ ([8]; 0.5 mg/kg): 0
- The number of animals with lesion degree − ([8]; 0.5 mg/kg): 0
- average score of myocardial tissue lesion degree ([8]; 0.5 mg/kg): 2.20 ± 0.79
- The number of animals with lesion degree + ([8]; 2 mg/kg): 6
- The number of animals with lesion degree ++ ([8]; 2 mg/kg): 3
- The number of animals with lesion degree +++ ([8]; 2 mg/kg): 0
- The number of animals with lesion degree ++++ ([8]; 2 mg/kg): 0
- The number of animals with lesion degree +++++ ([8]; 2 mg/kg): 0
- The number of animals with lesion degree − ([8]; 2 mg/kg): 1
- average score of myocardial tissue lesion degree ([8]; 2 mg/kg): 1.20 ± 0.63
- pathological damage of myocardial tissue (H&E staining) ([8]; three doses (0.1, 0.5, 2 mg/kg) by gavage): significantly improve the pathological damage of myocardial tissue
